Data from patent US11479802B2, “Assays for screening activity of modulators of members of the hydroxy steroid (17-beta) dehydrogenase (HSD17B) family” (Regeneron Pharmaceuticals, Inc., priority 2017, dated 2022).

Biological target: T1, human HSD17B13 (Homo sapiens, UniProt Q7Z5P4)
T1 sequence (Q7Z5P4 20-300): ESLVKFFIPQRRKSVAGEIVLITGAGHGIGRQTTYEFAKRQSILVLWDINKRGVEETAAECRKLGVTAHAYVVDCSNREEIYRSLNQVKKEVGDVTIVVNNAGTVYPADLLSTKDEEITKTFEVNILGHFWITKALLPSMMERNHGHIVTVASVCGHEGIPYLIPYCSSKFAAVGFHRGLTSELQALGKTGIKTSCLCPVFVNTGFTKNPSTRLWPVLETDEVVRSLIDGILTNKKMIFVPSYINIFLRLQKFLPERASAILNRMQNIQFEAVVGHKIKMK
Assay: Substrate screening of steroid and bioactive lipid libraries against purified recombinant HSD17B13 (NADH-linked luciferase assay)
Assay type: biochemical
Settings: Bioactive Lipid Library; for HSD17B13 Enzymatic Activity Relative Light Units: 5 μM bioactive lipid (Estradiol Control 50 μM), 500 μM NAD+, 100 ng enzyme, 3 hours at 23° C.; for HSD17B13 Enzymatic Activity Percent Estradiol Control: 5 μM bioactive lipid, normalized to 50 μM estradiol after subtraction of 5% DMSO
Description: To understand the functional consequences of premature truncation of the HSD17B13 protein due to rs72613567:TA (the associated variant, rs72613567, is an insertion of an adenine adjacent to the donor splice site of exon six (TA allele)), the enzymatic activity of isoforms A and D was evaluated in vitro using recombinant protein and nicotinamide […] dinucleotide as cofactor. Reactions were performed in a final volume of 40 μl of assay buffer (0.2 M Tris-HCl, pH 7.5) which contained 500 μM NAD^+, 5 μM bioactive lipid or 50 μM steroid (all in a final concentration of 5% DMSO), and 100 ng of recombinant human HSD17B13. Reactions were incubated for 3 hours, at 23° C., after which an equal volume detection reagent was added. Following a 1 hour incubation at 23° C., the relative light units (RLUs) were measured on an Envision Plate Reader (Perkin Elmer). Raw RLU values were normalized as percent of control (50 μM estradiol) following subtraction of negative control (5% DMSO) using the following formula: Percent of control (POC)=100×(Sample (RLU)−Negative CTRLaverage)/(Positive CTRLaverage−Negative CTRLaverage).

Row | HSD17B13 Enzymatic Activity Relative Light Units [RLU] | HSD17B13 Enzymatic Activity Percent Estradiol Control [%] | Compound
1 | 411120 | 6.50 | CCCCC/C=C\C/C=C\C/C=C\CC(O)C1CCCC(=O)O1 (racemic) [(±)5(6)-DiHET lactone]
2 | 353120 | 4.93 | CCCCCC=CCC=CCC=CCC(O)C(O)CCCC(=O)O (racemic) [(±)5(6)-DiHET]
3 | 360960 | 5.51 | CCCCC/C=C\C/C=C\C/C=C\CC1OC1CCCC(=O)O (racemic) [(±)5(6)-EET]
4 | 344480 | 4.85 | CC/C=C\C/C=C\C/C=C\C/C=C\C=C\C(O)CCCC(=O)O (racemic) [(±)5-HEPE]
5 | 337600 | 3.78 | CCCCC/C=C\C/C=C\C/C=C\C=C\[C@@H](O)CCCC(=O)OC (racemic) [(±)5-HETE methyl ester]
6 | 431960 | 10.79 | CCCCC/C=C\C/C=C\C/C=C\C=C\[C@@H](O)CCCC(=O)O (racemic) [(±)5-HETE]
7 | 472120 | 11.11 | CCCCC/C=C\C/C=C\CC(O)C(O)C/C=C\CCCC(=O)O (racemic) [(±)8(9)-DiHET]
8 | 472800 | 13.83 | CC/C=C\C/C=C\C/C=C\C=C\C(O)C/C=C\CCCC(=O)O (racemic) [(±)8-HEPE]
9 | 592720 | 22.75 | CCCCC/C=C\C/C=C\C=C\C(O)C/C=C\CCCC(=O)O (racemic) [(±)8-HETE]
10 | 391000 | 4.98 | CCCCC/C=C\CC(O)C(O)CCCCCCCC(=O)O (racemic) [(±)9(10)-DiHOME]
11 | 699960 | 30.72 | CC/C=C\C/C=C\C/C=C\CC(O)/C=C/C=C\CCCC(=O)O (racemic) [(±)9-HEPE]
12 | 1110120 | 61.22 | CCCCC/C=C\C/C=C\CC(O)/C=C/C=C\CCCC(=O)O (racemic) [(±)9-HETE]
13 | 599000 | 20.69 | CCCCC/C=C\CC(O)C(O)C/C=C\C/C=C\CCCC(=O)O (racemic) [(±)11(12)-DiHET]
14 | 791920 | 37.56 | CC/C=C\C/C=C\C=C\C(O)C/C=C\C/C=C\CCCC(=O)O (racemic) [(±)11-HEPE]
15 | 767720 | 35.76 | CCCCC/C=C\C=C\C(O)C/C=C\C/C=C\CCCC(=O)O (racemic) [(±)11-HETE]
16 | 761600 | 35.30 | CC/C=C\C/C=C\CC(O)/C=C/C=C\C/C=C\CCCC(=O)O (racemic) [(±)12-HEPE]
17 | 1324640 | 77.17 | CCCCC/C=C\C[C@H](O)/C=C/C=C\C/C=C\CCCC(=O)O (racemic) [(±)12-HETE]
18 | 356480 | 2.37 | CC/C=C\CC(O)C(O)C/C=C\C/C=C\C/C=C\CCCC(=O)O (racemic) [(±)14(15)-DiHETE]
19 | 403560 | 5.93 | CCCCCC(O)C(O)C/C=C\C/C=C\C/C=C\CCCC(=O)O (racemic) [(±)14(15)-DiHET]
20 | 305720 | 1.41 | CCCCCC1OC1C/C=C\C/C=C\C/C=C\CCCC(=O)O (racemic) [(±)14(15)-EET]

Second part, the compound before the results:

Row | Compound | HSD17B13 Enzymatic Activity Relative Light Units [RLU] | HSD17B13 Enzymatic Activity Percent Estradiol Control [%]
21 | 15-deoxy-Δ12,14-Prostaglandin J2-biotin | 252400 | −2.43
22 | CC/C=C\C/C=C\C/C=C\C/C=C\C/C=C\CC1OC1CCC(=O)OC (racemic) [(±)4(5)-EpDPA methyl ester] | 338320 | 1.00
23 | CCCCC/C=C\C/C=C\C/C=C\C[C@H]1O[C@H]1CCCC(=O)NCCO (racemic) [(±)5(6)-EET Ethanolamide] | 450160 | 9.45
24 | CCCCC/C=C\C/C=C\C/C=C\C=C\C1CCCC(=O)O1 (racemic) [(±)5-HETE lactone] | 348120 | 4.56
25 | CC/C=C\C/C=C\C/C=C\C/C=C\C=C\C(O)C/C=C\CCC(=O)O (racemic) [(±)7-HDHA] | 361320 | 5.54
26 | CC/C=C\C/C=C\C/C=C\C/C=C\CC(O)/C=C/C=C\CCC(=O)O (racemic) [(±)8-HDHA] | 773120 | 36.16
27 | CCCCC/C=C\CC1OC1CCCCCCCC(=O)O (racemic) [(±)9(10)-EpOME] | 354560 | 2.23
28 | CCCCC/C=C\C=C\C(O)CCCCCCCC(=O)O (racemic) [(±)9-HODE] | 695320 | 30.38
29 | CC/C=C\C/C=C\C/C=C\C=C\C(O)C/C=C\C/C=C\CCC(=O)O (racemic) [(±)10-HDHA] | 801680 | 38.28
30 | CC/C=C\C/C=C\C/C=C\CC(O)/C=C/C=C\C/C=C\CCC(=O)O (racemic) [(±)11-HDHA] | 1259280 | 72.31
31 | CCCCC/C=C\C=C\[C@H](O)CCCCCCCCCC(=O)O (racemic) [(±)11-HEDE] | 1334080 | 77.87
32 | CCCCC/C=C\CC(/C=C/C=C\C/C=C\CCCC(=O)O)OO (racemic) [(±)12-HpETE] | 165800 | −9.27
33 | CC/C=C\C/C=C\C=C\C(O)C/C=C\C/C=C\C/C=C\CCC(=O)O (racemic) [(±)13-HDHA] | 1154720 | 64.54
34 | CCCCCC(O)/C=C/C=C\CCCCCCCC(=O)O (racemic) [(±)13-HODE] | 954080 | 49.62
35 | CC/C=C\CC1OC1C/C=C\C/C=C\C/C=C\CCCC(=O)O (racemic) [(±)14(15)-EpETE] | 306600 | 1.86
36 | CCCCCC(O)/C=C/C=C\CCCCCCCCCC(=O)O (racemic) [(±)15-HEDE] | 1430720 | 85.06
37 | CC/C=C\CC(O)/C=C/C=C\C/C=C\C/C=C\CCCC(=O)O (racemic) [(±)15-HEPE] | 578600 | 21.70
